Consider 80 compounds from PubChem BioAssay AID1053144 (Broad Institute, 2014).

The test has as its system NPC TCF/LEF luciferase reporter, Wnt3a EC25, 24 h. Nature of the test: TCF/LEF reporter activation in neural progenitors – cell-based, iPS-derived NPC, luciferase, Wnt3a, cherry-pick, dose response (AID 1053144).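 Note: Wnt3a stimulus is conditioned medium from Wnt3a-transfected mouse L cells at 5% in well.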

With `Cc1ccc(OCC(=O)Nc2ccccc2C(N)=O)cc1`, the AC30 is 7.04 µM. The figure for `COc1ccc(/C=N/Nc2ccccn2)cc1O` is 11.6 µM. On to `CN1CCSc2ccc(C(=O)Nc3cc(F)ccc3F)cc21`, for which the AC30 was 2.35 µM. As for `O=C(COC(=O)c1cccs1)c1ccc2ccccc2c1`, the AC30 is 9.52 µM. For the compound `COc1ccc(N2COC3c4cccc5cccc(c45)C32)cc1` (stereo not given), the AC30 is 17.8 µM. As for `COC(=O)CCc1sc(Nc2ccccc2)nc1-c1ccc(OC)cc1`, the AC30 is 12.9 µM. Consider `Nc1ccccc1C(=O)/C=C/c1ccc2c(c1)OCO2`, for which the AC30 is 2.2 µM. Take `COc1ccc2sc(NC(=O)CC(C)C)nc2c1`: the AC30 was 13.4 µM. In the case of `COCCNC(=O)c1ccc2c3n(nc2c1)-c1ccc(C)cc1CO3`, the AC30 is 10.7 µM.

For the compound `Nc1c2ccccc2nc2ccccc12`, the AC30 was 5.99 µM. Take `COc1cc(/C=C/c2ccc3cccc(O)c3n2)cc(OC)c1OC`: the AC30 was 13.7 µM.

As for `N/C(=N\OC(=O)c1ccco1)c1ccc(Cl)cc1`, the AC30 was 11.8 µM.

In the case of `CCOC(=O)N1CCC(Nc2c(NCCCN3CCN(c4ccc(OC)cc4)CC3)c(=O)c2=O)CC1`, the AC30 was 19.5 µM. For `CCCc1cc(C(=O)Nc2cccc(C(C)=O)c2)no1` the value was 10.5 µM; for `CSc1ccc(C(=O)/C=C/c2ccc(N)cc2)cc1`, 6.32 µM; for `O=C(NCCO)c1ccc2c3n(nc2c1)-c1ccc(Cl)cc1CO3`, 12.3 µM.

Take `O=C(Nc1ncccc1O)c1ccc2c(c1)OCCO2`: the AC30 is 5.13 µM. As for `CC(=O)Nc1sc2c(c1-c1nc3ccccc3s1)CN(C(C)C)CC2`, the AC30 was 2.43 µM.

`O=C(c1cc(-c2cccc(O)c2)on1)N1CCCCCC1`: the AC30 was 4.78 µM. For `CCOc1ccc(CCNC(=O)/C=C/c2ccco2)cc1OCC` the value was 13.5 µM; for `O=c1oc(CCO)cc2ccc(C#Cc3ccsc3)cc12`, 4.78 µM. In the case of `O=c1c2cccc(Cl)c2nc2n1Cc1ccccc1-2`, the AC30 is 16.7 µM. For `CC(C)C1COC(c2cccc3ccccc23)=N1` (stereo not given) the value was 4.78 µM. For `O=C(/C=C/c1ccc(O)c(O)c1)c1ccccc1O` the value was 8.06 µM.

As for `COc1ccccc1OCc1cc(C(=O)N(C)CCC2CCOCC2)no1`, the AC30 is 9.94 µM. The figure for `CC(=O)Nc1ccc2nc3ccccc3nc2c1` is 15.3 µM; for `Cn1c(SCC(=O)c2ccccc2)nnc1-c1ccco1` it is 4.78 µM; for `Cc1cc(O)c(NC(=O)c2cccc([N+](=O)[O-])c2)cc1C` it is 11.2 µM. The figure for `Cc1ccc(-n2ncc3c(Nc4cccc(C(=O)O)c4)ncnc32)cc1` is 4.78 µM; for `O=C(Nc1ncccc1O)c1ccc(Oc2ccccc2)cc1` it is 12.3 µM.

Take `O=C(CCCCCCC(=O)Nc1ccccc1)NO`: the AC30 is 1.47 µM. The figure for `O=C(NC1CCCC1)c1cc(-c2ccccc2)on1` is 8.71 µM; for `CC1(C)CC(=O)/C(=N/Nc2ccc(Cl)cc2)CO1` it is 4.78 µM; for `Fc1ccccc1-c1nc(-c2ccncc2)no1` it is 2.79 µM. For `CCCC(=O)Nc1ccc(C(=O)COC(=O)C2CC2)cc1` the value was 5.63 µM; for `CC1CC1C(=O)OCc1cc(=O)n2cc(Br)ccc2n1` (stereo not given), 9.48 µM.

Take `O=C(NCCCn1ccnc1)c1cc(-c2ccccc2)on1`: the AC30 was 7.41 µM. The figure for `Cn1c(CCNC(=O)c2ccco2)nc2cc(NC(=O)c3ccco3)ccc21` is 11.8 µM. Regarding `O=C(c1cc2ccccc2o1)c1cccs1`, the AC30 is 8.58 µM. Take `Cc1ccc2cc(NC(=O)c3cccc(F)c3)ccc2n1`: the AC30 is 10.5 µM. Consider `O=C(C=Cc1ccco1)c1ccc2ccccc2c1`, for which the AC30 is 11.2 µM. Turning to `COc1ccc2c(c1)c(/C=N/Nc1nc3ccccc3[nH]1)c(C)n2C`, the AC30 was 12.1 µM. As to `O=C(O)c1ccc(/C=C(\c2nc3ccccc3[nH]2)c2nc3ccccc3s2)cc1`, the AC30 is 15.8 µM.

Regarding `O=C(c1ccccc1)c1ccc2nc(-c3ccco3)c(-c3ccco3)nc2c1`, the AC30 was 8.23 µM. Regarding `COc1ccc2cc(-c3ccn[nH]3)ccc2c1`, the AC30 is 4.78 µM. The figure for `Nc1ccc2nc3c(=O)n(C4CCCCC4)c(=O)[nH]c3nc2c1` is 10.5 µM. For `Cc1cc(C)n(CCC(=O)N/N=C/c2ccc(Br)c([N+](=O)[O-])c2)n1` the value was 17.2 µM.

Turning to `CCOC(=O)C1=C(COC(=O)c2cccc(N(C)C)c2)NC(=O)NC1C` (stereo not given), the AC30 is 11.8 µM. Consider `Cc1cccc(C(=O)OCC(=O)N2CCCCCC2)c1C`, for which the AC30 is 12.1 µM. Consider `CCOc1ccc(-c2nnc(-c3ccccc3)n2-c2ccccc2)cc1`, for which the AC30 is 12.4 µM. The figure for `C=CCNC(=O)c1ccc2c3n(nc2c1)-c1ccc(Cl)cc1CO3` is 9.82 µM. With `O=C(Nc1ccc2nc(-c3ccccc3)[nH]c2c1)c1ccco1`, the AC30 is 16.9 µM.

For the compound `O=C(Nn1cnc2ccccc2c1=O)c1c(F)cccc1F`, the AC30 was 18.8 µM.

Consider `CCCNC(=O)c1oc2ccc3c(c2c1C)C=CC(C)(C)O3`, for which the AC30 is 8.63 µM. Regarding `Fc1ccc2nc3[nH]c4ccccc4c3nc2c1`, the AC30 was 8.76 µM.

Consider `O=C(NCCc1ccccc1)c1cc(-c2ccco2)on1`, for which the AC30 was 10.7 µM. With `Cc1ccc2oc(-c3cccc(NC(=O)c4ccccn4)c3)nc2c1`, the AC30 is 10.9 µM.

In the case of `Cc1ccc(/C=N/Nc2nc3ccccc3[nH]2)s1`, the AC30 is 16.1 µM. As for `CC1CCc2c(C(=O)Nc3ccccn3)csc2C1` (stereo not given), the AC30 is 4.65 µM. For `CCC(=O)Nc1sc(C(=O)Nc2ccccc2)c(C)c1C(=O)OC` the value was 9.81 µM; for `Cc1ccc(COc2ccc3c(c2)OCO3)cc1`, 17 µM. Take `CNC(=O)c1ccsc1NC(=O)c1sc2ccccc2c1Cl`: the AC30 is 12.4 µM. For `O=C(O)c1ccc2c(c1)C(=O)N(c1ccc(/C=C/C(=O)c3ccccc3)cc1)C2=O` the value was 18.7 µM. The figure for `O=C(Nc1ccc(NC(=O)C2CCCCC2)nc1)c1cccs1` is 10.1 µM. The figure for `c1ccc(-c2cc(-c3ccccc3)on2)cc1` is 4.78 µM; for `Nc1ccccc1NC(=O)c1ccccc1` it is 8.77 µM.

As to `C(=C\c1nc(-c2cccnc2)no1)/c1ccccc1`, the AC30 is 4.78 µM. Turning to `CCc1cc2c(=O)[nH]c(-c3ccccn3)nc2s1`, the AC30 is 10.2 µM. The figure for `COc1ccc(-c2ccc3ccccc3n2)cc1OC` is 9.49 µM; for `CCOC(=O)c1ccc(-c2ccc(CO)o2)cc1` it is 17.5 µM. Turning to `Cc1cccc(NC(=O)c2c(O)c3ccccc3[nH]c2=O)c1`, the AC30 is 6.72 µM.

For the compound `CCc1ccccc1-n1c(SCC(=O)N2CCCC2)nnc1-c1ccccn1`, the AC30 was 8.48 µM.

For `CCOCC(=O)Nc1nc2ccc(OCC)cc2s1`, the AC30 is 11.8 µM. The figure for `O=C(O)c1ccc(N=Nc2c(O)[nH]c3cc(Cl)ccc23)cc1` is 4.78 µM; for `Cc1ccc2nc(-c3ccc(NC(=O)CSCC(=O)O)cc3)sc2c1` it is 2.04 µM. As to `COc1cccc(/C=C2\N=C3CCCCCN3C2=O)c1`, the AC30 is 16.1 µM.

On to `CC(C)c1ccc(NC(=O)c2ccccc2NC(=O)C2CCCCC2C(=O)O)cc1` (stereo not given), for which the AC30 is 15.5 µM. The figure for `CCOc1cc(/C=N/NC(=O)N/N=C/c2ccc(O)c(OCC)c2)ccc1O` is 13.1 µM. Turning to `O=C(c1ccc(-c2ccc(Cl)cc2Cl)o1)N1CCOCC1`, the AC30 is 8.53 µM. The figure for `O=Nc1c(-c2c(O)[nH]c3cc(Br)ccc23)[nH]c2ccccc12` is 0.942 µM.
